Results as given in patent publication US20210238173A1, “MITOGEN-ACTIVATED PROTEIN KINASE KINASE 7 INHIBITORS” (Yeda Research and Development Co. Ltd., priority 2018, published 2021).

Legend:
[1] = system: pJNK in 3T3 WT cells; assay: In-cell western (ICW) pJNK inhibition in 3T3 WT; format: cell-based; details: 3T3 WT, sorbitol stimulation; for EC50: ICW, 2 h pre-incubation
Description: (§1) HEK293, Beas2B and 3T3 cells were plated 24 hours before procedure on 384 well clear bottom black flat plates (Corning) pre-coated with Fibronectin (Sigma) diluted in PBS to a concentration of 5 μg/ml 45 minutes prior to cells introduction. Cells were plated using Multidrop™ Combi reagent dispenser (Thermo Fisher Scientific). Compound, reagents and antibody dispensing as well as washes were performed with a CyBio liquid handler (Analytik). Cells were pre-incubated with a small molecule or up to 1% DMSO for 2 h before fixation. HEK293, 3T3 or Beas2B cells were treated with 0.6M/0.2M/0.2M D-Sorbitol/PBS (Sigma) for 20/40/40 min. respectively, before fixation. Media was removed and wells were immediately fixed with 150 μl per well of 3.7% formaldehyde/PBS fixing solution for 20 min. Formaldehyde was then aspired and cells were permeabilized with 150 μl of 0.5% Triton x-100/PBS solution for 10 min. After aspiration cells were washed with ice-cold methanol and stored at −20° C., for 10 min. Methanol was aspired and cells were blocked with 150 μl blocking buffer (LICOR) for 90 min. Primary antibody Phospho-SAPK/JNK T183/Y185 (CST; 9251S) was diluted 1:1000 in blocking buffer and was applied 50 μl per well, except control wells to which only blocking buffer was applied, O.N. (16 h) at 4° C. with mild shaking. Primary antibody was aspired, wells were washed with 150 μl 0.1% Tween20/PBS (Sigma) washing solution three times for 7 min. IRDye® 800CW Goat anti-Rabbit IgG Secondary antibody (LICOR) was then diluted 1:1200 in blocking buffer with 50 μl applied per well on control wells only (no CellTag control), then CellTag700 (1:2000) was added to the solution and 50 μl were added to all experiment wells, for 1 h at room temperature. Wells were aspired and washed again with 150 μl 0.1% Tween20/PBS (Sigma) washing solution three times for 7 min. plate was dried and scanned with Odyssey CLx imaging system at 700 nm and 800 nm (Licor). Wells signals were analyzed with Odyssey software. The signal was normalized by the CellTag700 signal.
(§2) To rapidly assess the cellular activity (EC50) with full dose response curves of the MKK7 covalent inhibitors, according to some embodiments of the present invention, an in-cell western assay was adapted to a 384 well plate format over traditional western blot, and monitored phospho-JNK (pJNK) levels in response to osmotic shock. We first characterized the dynamics of pJNK in response to sorbitol. Sufficient dynamic range for pJNK is achieved at 20 minutes in HEK293 cells and at 40 minutes in 3T3 and Beas2B cells. The compound's activity was assessed by pre-treating cells with either compound or DMSO for 2 hours, followed by Sorbitol stimulation. The response of pJNK, and its substrates, pc-Jun and pATF2, was measured, as well as pP38, which is a substrate of MKK4 but not MKK7, and pERK in HEK293 cells, and the results are presented in Table 5 below.
Wildtype 3T3 cells, 3T3 MKK7 double knock-out (MKK7^−/−) cells and MKK4/7 double knockouts (MKK4/7^−/−) were used to validate on target activity of the MKK7 covalent inhibitors presented herein.

[2] = system: pATF2 in HEK293 cells; assay: pATF2 inhibition in HEK293 cells; format: cell-based; details: Homo sapiens
Description: as §1, with “Primary antibody was aspired, wells were washed with 150 μl 0.1% Tween20/PBS (Sigma) washing solution three times for 7 min. IRDye® 800CW Goat anti-Rabbit IgG Secondary antibody (LICOR) was then diluted 1:1200 in blocking buffer with 50 μl applied per well on control wells only (no CellTag control), then CellTag700 (1:2000) was added to the solution and 50 μl were added to all experiment wells, for 1 h at room temperature. Wells were aspired and washed again with 150 μl 0.1% Tween20/PBS (Sigma) washing solution three times for 7 min. plate was dried and scanned with Odyssey CLx imaging system at 700 nm and 800 nm (Licor).” left out, “The signal was normalized by the CellTag700 signal.” left out
as §2, with “We first characterized the dynamics of pJNK in response to sorbitol. Sufficient dynamic range for pJNK is achieved at 20 minutes in HEK293 cells and at 40 minutes in 3T3 and Beas2B cells.” left out

[3] = system: pP38 in HEK293 cells; assay: pP38 response in HEK293 cells; format: cell-based; details: at 10 μM
Description: as §2
(§3) With similar values for pcJun (2.26 μM and 1.67 μM, respectively) and pATF2 (2.79 μM 5.19 μM, respectively).

[4] = target: T1, MKK7 (Homo sapiens, UniProt O14733); assay: In vitro kinase activity assay for MKK7 (Nanosyn); format: biochemical; details: read-out: MKK7 IC50 in vitro
T1 construct: purchased Nanosyn (contract assay)
T1 sequence (O14733 1-419): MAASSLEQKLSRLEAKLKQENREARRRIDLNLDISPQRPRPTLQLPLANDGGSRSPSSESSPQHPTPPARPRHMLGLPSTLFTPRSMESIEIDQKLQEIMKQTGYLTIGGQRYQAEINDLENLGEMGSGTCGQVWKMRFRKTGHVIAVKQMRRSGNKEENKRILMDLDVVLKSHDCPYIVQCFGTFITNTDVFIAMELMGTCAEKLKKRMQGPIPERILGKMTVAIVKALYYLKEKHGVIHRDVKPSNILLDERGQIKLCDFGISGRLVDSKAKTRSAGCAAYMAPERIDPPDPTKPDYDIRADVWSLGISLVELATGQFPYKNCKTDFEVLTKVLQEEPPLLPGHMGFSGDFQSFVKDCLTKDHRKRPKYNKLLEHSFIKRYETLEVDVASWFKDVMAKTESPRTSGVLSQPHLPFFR
Description: Based on visual inspection of the top 500 predictions, 10 compounds were selected for synthesis and testing (see, Table 1). The “Docking rank” is given in its respective run, whereas four virtual libraries of acrylamides were docked separately, based on the amine precursor for the acrylamide (primary or secondary aliphatic amines, primary or secondary aromatic amines). In vitro kinase activity assay was carried out by Nanosyn, as described below.
(§4) In Vitro Activity Assays for MKK7 or MKK4 (Carried by Nanosyn):
(§5) Exemplary test compounds, according to some embodiments of the present invention, were diluted in DMSO to a final concentration that ranged from 10 μM to 0.0565 nM, while final concentration of DMSO in all assays was kept at 1%. Reference compound, Staurosporine, was tested in a similar manner. […] After incubation, activity of now activated JNK1 was tested in the presence of 30 μM ATP ATP for 17 h (MKK7) or 4 h (MKK4).

[5] = system: pERK in HEK293 cells; assay: pERK response in HEK293 cells; format: cell-based; details: at 10 μM
Description: as §2, §3

[6] = target: T2, MKK4 (Homo sapiens, UniProt P45985); assay: In vitro activity assay for MKK4 (Nanosyn); format: biochemical
T2 construct: purchased Nanosyn (contract assay)
T2 sequence (P45985 1-399): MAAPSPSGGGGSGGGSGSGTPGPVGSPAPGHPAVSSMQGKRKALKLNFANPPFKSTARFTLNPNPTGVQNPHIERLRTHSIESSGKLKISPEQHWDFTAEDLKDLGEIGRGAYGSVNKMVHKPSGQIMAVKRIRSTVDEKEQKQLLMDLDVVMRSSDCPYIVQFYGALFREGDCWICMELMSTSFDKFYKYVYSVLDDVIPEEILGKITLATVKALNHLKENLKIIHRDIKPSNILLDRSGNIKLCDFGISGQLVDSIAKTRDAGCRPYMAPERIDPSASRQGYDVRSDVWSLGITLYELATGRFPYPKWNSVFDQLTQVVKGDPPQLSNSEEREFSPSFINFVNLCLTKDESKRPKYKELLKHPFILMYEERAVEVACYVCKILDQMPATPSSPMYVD
Description: as §4, §5

[7] = system: p-cJun in HEK293 cells; assay: p-cJun inhibition in HEK293 cells; format: cell-based; details: Homo sapiens
Description: as §1, with “Primary antibody was aspired, wells were washed with 150 μl 0.1% Tween20/PBS (Sigma) washing solution three times for 7 min. IRDye® 800CW Goat anti-Rabbit IgG Secondary antibody (LICOR) was then diluted 1:1200 in blocking buffer with 50 μl applied per well on control wells only (no CellTag control), then CellTag700 (1:2000) was added to the solution and 50 μl were added to all experiment wells, for 1 h at room temperature. Wells were aspired and washed again with 150 μl 0.1% Tween20/PBS (Sigma) washing solution three times for 7 min. plate was dried and scanned with Odyssey CLx imaging system at 700 nm and 800 nm (Licor).” left out, “The signal was normalized by the CellTag700 signal.” left out
as §2, with “We first characterized the dynamics of pJNK in response to sorbitol. Sufficient dynamic range for pJNK is achieved at 20 minutes in HEK293 cells and at 40 minutes in 3T3 and Beas2B cells.” left out

[8] = system: pJNK in HEK293 cells; assay: In-cell western (ICW) pJNK inhibition in HEK293; format: cell-based; details: 2 h pre-incubation, sorbitol stimulation
Description: as §1, §2

[9] = Metabolic stability in rat liver microsomes; format: in vitro ADME; details: for half-life: rat, liver microsomes
From the text: (§6) A reference compound, REF1250, was used in this study: […]

[10] = Metabolic stability in dog liver microsomes; format: in vitro ADME; details: for half-life: dog, liver microsomes
From the text: as §6

[11] = Metabolic stability in human liver microsomes; format: in vitro ADME; details: for half-life: human, liver microsomes
From the text: as §6

[12] = Metabolic stability in mouse liver microsomes; format: in vitro ADME; details: for half-life: mouse, liver microsomes
From the text: as §6

[13] = Metabolic stability in monkey liver microsomes; format: in vitro ADME
From the text: as §6

[14] = system: primary mouse B-cells; assay: Primary B-cell activation (CD86+ FACS) in response to LPS; format: cell-based; details: 10 μM, 2 hours pre-incubation
From the text: Compounds Block Activation of Primary Mouse B-Cells:
JNK is known to mediate activation of B-cells in response to lypopolysacharide (LPS) through the TLR4 signaling pathway as well as in response to B-cell receptor activation (stimulated e.g. with an anti-IgM antibody). Primary B-cells were isolated from the spleen of mice and assessed for their B-cell activation, via FACS analysis of CD86+ expression, in response to LPS in the presence or absence of the covalent MKK7 enzyme inhibitors presented herein, as well as a positive control JNK inhibitor, JNK-IN-8.
At 10 μM and 2 hours pre-incubation before stimulation, GO80 was able to inhibit 60% of the CD86+ response.

[15] = Homo sapiens, HEK293, HEK293, ICW

SMILES	EC50 [1] [µM]	IC50 [4] [µM]	IC50 [6] [µM]	EC50 [8, 15] [µM]	% remaining @ 40 min [9] [%]	half-life [9] [min]	% remaining @ 40 min [10] [%]	half-life [10] [min]	% remaining @ 40 min [11] [%]	half-life [11] [min]	% remaining @ 40 min [12] [%]	half-life [12] [min]	% remaining @ 40 min [13] [%]	half-life [13] [min]	EC50 ([8]; HEK293, ICW) [µM]	inhibition of the CD86+ response [14] [%]	further results
C=CC(=O)Nc1cccc(-c2n[nH]c3cc([N+](=O)[O-])ccc23)c1 [GO37]	4.2	0.014	> 10	0.73	–	–	–	–	–	–	–	–	–	–	–	–	IC50 [1]: 5.33 µM; EC50 [2]: 3.71 µM; effect on pP38 levels [3]: did not affect; effect on pERK levels [5]: did not affect; EC50 [7]: 2.52 µM
C=CC(=O)Nc1cccc(-c2n[nH]c3cc(Br)ccc23)c1 [GO98]	–	0.01	> 10	–	2	6	0	< 5	0	< 5	0	< 5	0	< 5	–	–	–
C=CC(=O)Nc1cc(C#N)cc(-c2n[nH]c3cc(C)ccc23)c1 [GO108]	–	0.002	> 10	3.7	6	10	0	< 5	0	< 5	0	< 5	0	< 5	2.3	–	–
Cc1cc(NC(=O)c2cccc(NC(=O)/C=C/CN(C)C)c2)ccc1Nc1nccc(-c2cccnc2)n1 [JNK-IN-8, reference compound]	–	–	–	–	–	–	–	–	–	–	–	–	–	–	–	~90	–
C=CC(=O)Nc1cc(-c2n[nH]c3ccccc23)ccn1 [PCM475]	0.3	–	–	–	22	–	5	–	0	–	0	–	18	–	0.9	~90	Halflife [9]: 18 min; Halflife [10]: 9 min; Halflife [11]: <5 min; Halflife [12]: <5 min; Halflife [13]: 16 min
